A value given as a limit tells only on which side of the number the result lay.

Test [1] deals with Muscarinic acetylcholine receptor M3 (Rattus norvegicus) (UniProt P08483). Description: Compound was tested in vitro for its ability to displace [3H]-QNB from brain Muscarinic acetylcholine receptor.
Test [2] has as its target T1, High affinity choline transporter 1 (Mus musculus, UniProt Q8BGY9).
T1 sequence (Q8BGY9 whole entry): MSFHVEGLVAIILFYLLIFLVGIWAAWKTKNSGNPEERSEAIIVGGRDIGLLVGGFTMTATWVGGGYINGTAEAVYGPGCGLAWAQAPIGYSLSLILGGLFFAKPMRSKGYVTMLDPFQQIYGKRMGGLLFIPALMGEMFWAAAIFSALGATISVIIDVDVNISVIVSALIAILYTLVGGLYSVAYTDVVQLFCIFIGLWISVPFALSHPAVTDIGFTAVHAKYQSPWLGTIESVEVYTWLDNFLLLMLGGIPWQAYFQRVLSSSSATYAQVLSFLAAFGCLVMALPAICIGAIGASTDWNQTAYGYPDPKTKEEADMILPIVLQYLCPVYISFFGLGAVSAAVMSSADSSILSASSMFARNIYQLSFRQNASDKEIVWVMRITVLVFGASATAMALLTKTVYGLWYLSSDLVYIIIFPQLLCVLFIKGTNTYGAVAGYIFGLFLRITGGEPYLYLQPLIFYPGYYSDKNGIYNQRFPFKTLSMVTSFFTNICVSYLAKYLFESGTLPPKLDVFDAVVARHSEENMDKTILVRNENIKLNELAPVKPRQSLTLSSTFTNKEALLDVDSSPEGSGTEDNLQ
As to the kind of experiment: In vitro ability to inhibit the transport of [3H]choline in to high affinity choline transport system HAChT.

Sequence of Muscarinic acetylcholine receptor M3 (Rattus norvegicus) (P08483 whole entry, looked up): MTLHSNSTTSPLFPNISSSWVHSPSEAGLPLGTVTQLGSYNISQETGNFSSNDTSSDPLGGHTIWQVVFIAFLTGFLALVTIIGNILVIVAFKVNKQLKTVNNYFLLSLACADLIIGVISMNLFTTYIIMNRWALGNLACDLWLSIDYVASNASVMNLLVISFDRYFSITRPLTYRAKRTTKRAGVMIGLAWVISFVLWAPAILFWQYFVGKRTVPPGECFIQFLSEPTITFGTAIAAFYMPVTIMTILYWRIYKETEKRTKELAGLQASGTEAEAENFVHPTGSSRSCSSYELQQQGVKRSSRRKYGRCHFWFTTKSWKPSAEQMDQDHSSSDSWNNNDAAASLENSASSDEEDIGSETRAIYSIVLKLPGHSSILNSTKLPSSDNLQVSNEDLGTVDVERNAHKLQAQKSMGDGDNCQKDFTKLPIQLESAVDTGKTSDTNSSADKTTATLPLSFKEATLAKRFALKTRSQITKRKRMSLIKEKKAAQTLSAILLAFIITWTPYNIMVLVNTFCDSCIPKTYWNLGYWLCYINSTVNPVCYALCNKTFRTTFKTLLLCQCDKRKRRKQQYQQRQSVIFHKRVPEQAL

As a reminder, the IC50 is the concentration at which inhibition is half-maximal. A lower IC50 goes with inhibition by little substance. The compound `CCCC[N+]1(CCO)CC1` yielded a Displacement in test [1] of 9%. Moreover, the IC50 in test [2] is greater than 1000 µM.
In turn, `C[N+](C)(C)CCO` [CHOLINE] registered an IC50 in test [2] of 1.6 µM.
As to `CC(C)C[N+]1(CCO)CC1`, the Displacement in test [1] stood at 6%. For the same compound, in test [2], it took 31 µM to reach half-maximal inhibition (IC50).
As to `CC[N+]1(CCO)CC1`, the Displacement in test [1] was found to be 18%. In addition, the IC50 in test [2] came to 1.5 µM.
Regarding `CCC[N+]1(CCO)CC1`, in test [1], the Displacement was determined as 16%. Further, the IC50 in test [2] stood at 7.5 µM.
